According to ChEMBL document CHEMBL1201862, “PubChem BioAssay data set” (2004):
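These data come from cells grown in 96-well plates and exposed to compound for 48 hours at five concentrations. At the GI50, growth is halved.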 Calls of active or inactive are those of the source. No stated cut-off is given here; in the data, active = GI50 up to about 1.1 µM and inactive = higher.

Tests used:
Test in all cases: NCI-60 cell line screen, 48 h
[1] = system: K562
[2] = system: EKVX
[3] = system: MOLT-4
[4] = system: OVCAR-5
[5] = system: HCT-116
[6] = system: SF-539
[7] = system: SK-OV-3
[8] = system: SW-620
[9] = system: KM12
[10] = system: UACC-62
[11] = system: HT-29
[12] = system: OVCAR-3
[13] = system: SN12C
[14] = system: UO-31
[15] = system: M14
[16] = system: SK-MEL-28
[17] = system: U-251
[18] = system: SK-MEL-2
[19] = system: SF-268
[20] = system: HCT-15

For Oc1cc(-c2ccccn2)nc2cc(F)ccc12, the GI50 [1] was 44.9 µM (inactive), the GI50 [2] was 42.9 µM (inactive) and the GI50 [3] was > 100 µM (inactive). The GI50 [4] was > 100 µM (inactive), the GI50 [5] was 43.3 µM (inactive) and the GI50 [6] was 58.6 µM (inactive). For the same molecule, the GI50 [7] was > 100 µM (inactive), the GI50 [8] was 36.6 µM (inactive) and the GI50 [9] was 36.1 µM (inactive). For the same molecule, the GI50 [10] was 55.8 µM (inactive), the GI50 [11] was 49.1 µM (inactive) and the GI50 [12] was > 100 µM (inactive). For the same molecule, the GI50 [13] was > 100 µM (inactive), the GI50 [14] was > 100 µM (inactive) and the GI50 [15] was 81.1 µM (inactive). The GI50 [16] was > 100 µM (inactive).

In the case of c1ccc(SC(Sc2ccccc2)c2ccc3c(c2)OCO3)cc1, the GI50 [17] is reported as > 100 µM (inactive), the GI50 [1] is reported as > 100 µM (inactive) and the GI50 [2] is reported as 37.2 µM (inactive). For the same molecule, the GI50 [3] was 38.1 µM (inactive), the GI50 [4] was > 100 µM (inactive) and the GI50 [5] was > 100 µM (inactive). The GI50 [8] was > 100 µM (inactive), the GI50 [9] was > 100 µM (inactive) and the GI50 [10] was > 100 µM (inactive). The GI50 [11] was 65.2 µM (inactive), the GI50 [18] was > 100 µM (inactive) and the GI50 [12] was 60.3 µM (inactive). For the same molecule, the GI50 [13] was > 100 µM (inactive), the GI50 [19] was 93.1 µM (inactive) and the GI50 [20] was over 100 µM. For the same molecule, the GI50 [14] was > 100 µM (inactive), the GI50 [15] was > 100 µM (inactive) and the GI50 [16] was > 100 µM (inactive).

For CN(C)c1ccc(/C=C2\Oc3ccccc3C2=O)cc1, the GI50 [17] was > 100 µM (inactive), the GI50 [1] was 21.5 µM (inactive) and the GI50 [2] was > 100 µM (inactive). The GI50 [3] was > 100 µM (inactive), the GI50 [5] was > 100 µM (inactive) and the GI50 [6] was > 100 µM (inactive). For the same molecule, the GI50 [7] was > 100 µM (inactive), the GI50 [8] was > 100 µM (inactive) and the GI50 [9] was > 100 µM (inactive). The GI50 [10] was > 100 µM (inactive), the GI50 [11] was > 100 µM (inactive) and the GI50 [12] was > 100 µM (inactive). The GI50 [13] was > 100 µM (inactive), the GI50 [19] was > 100 µM (inactive) and the GI50 [20] was over 100 µM. For the same molecule, the GI50 [14] was 52.2 µM (inactive), the GI50 [15] was > 100 µM (inactive) and the GI50 [16] was > 100 µM (inactive).

N#C/C(=C1/c2cc([N+](=O)[O-])ccc2-c2c1cc([N+](=O)[O-])cc2[N+](=O)[O-])N1CCCCC1 was tested, and the GI50 [17] was 71.8 µM (inactive), the GI50 [1] was > 100 µM (inactive) and the GI50 [2] was > 100 µM (inactive). The GI50 [3] was > 100 µM (inactive), the GI50 [4] was > 100 µM (inactive) and the GI50 [5] was 27.3 µM (inactive). For the same molecule, the GI50 [7] was 93.1 µM (inactive), the GI50 [8] was > 100 µM (inactive) and the GI50 [9] was > 100 µM (inactive). For the same molecule, the GI50 [10] was 68.4 µM (inactive), the GI50 [11] was > 100 µM (inactive) and the GI50 [18] was > 100 µM (inactive). The GI50 [12] was > 100 µM (inactive), the GI50 [13] was > 100 µM (inactive) and the GI50 [19] was > 100 µM (inactive). For the same molecule, the GI50 [20] was over 100 µM, the GI50 [14] was > 100 µM (inactive) and the GI50 [15] was 86.9 µM (inactive). For the same molecule, the GI50 [16] was > 100 µM (inactive).

For CC(C)=CC(=O)N1CCN(C(=O)C=C(C)C)CC1, the GI50 [17] was > 100 µM (inactive), the GI50 [1] was > 100 µM (inactive) and the GI50 [2] was > 100 µM (inactive). For the same molecule, the GI50 [3] was > 100 µM (inactive), the GI50 [4] was > 100 µM (inactive) and the GI50 [5] was > 100 µM (inactive). The GI50 [6] was > 100 µM (inactive), the GI50 [7] was > 100 µM (inactive) and the GI50 [8] was > 100 µM (inactive). The GI50 [9] was > 100 µM (inactive), the GI50 [10] was > 100 µM (inactive) and the GI50 [11] was > 100 µM (inactive). For the same molecule, the GI50 [12] was > 100 µM (inactive), the GI50 [13] was > 100 µM (inactive) and the GI50 [19] was > 100 µM (inactive). For the same molecule, the GI50 [20] was over 100 µM, the GI50 [14] was > 100 µM (inactive) and the GI50 [15] was > 100 µM (inactive). The GI50 [16] was > 100 µM (inactive).

For CCOC(=O)c1c(-c2ccc(OC)cc2)c(C#N)c(=S)n(C2OC(COC(C)=O)C(OC(C)=O)C(OC(C)=O)C2OC(C)=O)c1C (stereo not drawn), the GI50 [17] was > 100 µM (inactive), the GI50 [1] was 38.4 µM (inactive) and the GI50 [2] was 78.2 µM (inactive). The GI50 [3] was 61.1 µM (inactive), the GI50 [4] was > 100 µM (inactive) and the GI50 [5] was > 100 µM (inactive). For the same molecule, the GI50 [6] was > 100 µM (inactive), the GI50 [7] was > 100 µM (inactive) and the GI50 [8] was > 100 µM (inactive). For the same molecule, the GI50 [9] was > 100 µM (inactive), the GI50 [10] was 44.5 µM (inactive) and the GI50 [11] was > 100 µM (inactive). For the same molecule, the GI50 [12] was 31.5 µM (inactive), the GI50 [13] was > 100 µM (inactive) and the GI50 [19] was > 100 µM (inactive). The GI50 [20] was over 100 µM, the GI50 [14] was 1.46 µM (inactive) and the GI50 [15] was > 100 µM (inactive). For the same molecule, the GI50 [16] was > 100 µM (inactive).

In the case of CN(C)CC/C(=N\Nc1ccc(Cl)c(Cl)c1)c1ccccc1, the GI50 [17] is reported as 1.78 µM (inactive), the GI50 [1] is reported as 1.93 µM (inactive) and the GI50 [2] is reported as 1.82 µM (inactive). For the same molecule, the GI50 [3] was 2.17 µM (inactive), the GI50 [4] was 2.56 µM (inactive) and the GI50 [5] was 1.73 µM (inactive). The GI50 [6] was 1.82 µM (inactive), the GI50 [7] was 3.72 µM (inactive) and the GI50 [8] was 1.72 µM (inactive). The GI50 [9] was 2.05 µM (inactive), the GI50 [10] was 1.95 µM (inactive) and the GI50 [11] was 1.96 µM (inactive). For the same molecule, the GI50 [12] was 2.8 µM (inactive), the GI50 [13] was 2.14 µM (inactive) and the GI50 [19] was 1.79 µM (inactive). The GI50 [20] was 1.98 µM, the GI50 [14] was 1.45 µM (inactive) and the GI50 [16] was 2.52 µM (inactive).

In the case of CC(NO)/C(=N/O)c1ccco1 (stereo not drawn), the GI50 [17] is reported as > 10 µM (inactive), the GI50 [1] is reported as > 10 µM (inactive) and the GI50 [2] is reported as > 10 µM (inactive). The GI50 [3] was > 10 µM (inactive), the GI50 [4] was > 10 µM (inactive) and the GI50 [5] was > 10 µM (inactive). The GI50 [8] was > 10 µM (inactive), the GI50 [9] was > 10 µM (inactive) and the GI50 [11] was > 10 µM (inactive). The GI50 [18] was > 10 µM (inactive), the GI50 [12] was > 10 µM (inactive) and the GI50 [13] was > 10 µM (inactive). For the same molecule, the GI50 [19] was > 10 µM (inactive), the GI50 [20] was over 10 µM and the GI50 [14] was > 10 µM (inactive). The GI50 [15] was > 10 µM (inactive).
